# Measured values published in patent US20220306617A1, “SUBSTITUTED 1,3-PHENYL HETEROARYL DERIVATIVES AND THEIR USE IN THE TREATMENT OF DISEASE” (NOVARTIS AG, priority 2019, published 2022).
# Biological target: T1, abc isoform of human TMEM16A channel expressed in CHO cells (Homo sapiens, UniProt Q5XXA6, DEL476-501)
# T1 construct: expressed in transfected cells; host or cells: CHO cells, doxycycline-inducible expression under Blasticidin/Zeocin selection
# T1 sequence (Q5XXA6 with tags, fused parts or gaps isoform Q5XXA6-5 DEL539-564): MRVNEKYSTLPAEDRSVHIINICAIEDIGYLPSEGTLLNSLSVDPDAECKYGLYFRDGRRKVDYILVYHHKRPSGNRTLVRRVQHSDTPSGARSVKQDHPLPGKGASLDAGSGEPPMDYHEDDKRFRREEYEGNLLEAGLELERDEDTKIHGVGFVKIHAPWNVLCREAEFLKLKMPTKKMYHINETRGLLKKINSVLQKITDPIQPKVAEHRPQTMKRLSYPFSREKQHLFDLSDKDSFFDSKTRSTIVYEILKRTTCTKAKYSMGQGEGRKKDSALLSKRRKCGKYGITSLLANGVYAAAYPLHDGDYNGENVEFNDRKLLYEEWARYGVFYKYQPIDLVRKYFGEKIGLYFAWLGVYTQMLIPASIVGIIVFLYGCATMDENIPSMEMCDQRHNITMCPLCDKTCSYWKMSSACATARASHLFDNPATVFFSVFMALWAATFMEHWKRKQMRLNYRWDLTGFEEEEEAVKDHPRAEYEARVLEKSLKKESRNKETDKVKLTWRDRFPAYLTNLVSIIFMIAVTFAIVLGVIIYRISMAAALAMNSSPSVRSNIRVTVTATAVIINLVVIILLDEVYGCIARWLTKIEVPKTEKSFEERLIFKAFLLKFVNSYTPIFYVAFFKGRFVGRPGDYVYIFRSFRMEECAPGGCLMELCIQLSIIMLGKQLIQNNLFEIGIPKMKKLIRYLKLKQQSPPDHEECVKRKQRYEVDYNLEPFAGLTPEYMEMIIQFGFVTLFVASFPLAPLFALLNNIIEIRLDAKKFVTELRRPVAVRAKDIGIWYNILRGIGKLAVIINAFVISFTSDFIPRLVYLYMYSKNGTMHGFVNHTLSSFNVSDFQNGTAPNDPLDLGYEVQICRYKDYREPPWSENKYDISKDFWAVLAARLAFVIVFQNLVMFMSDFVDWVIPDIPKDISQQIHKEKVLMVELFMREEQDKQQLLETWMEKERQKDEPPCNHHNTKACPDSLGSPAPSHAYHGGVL
# Experiment: Automated patch clamping (QPatch) assay to measure TMEM16A activity in whole-cell
# Format: cell-based
# Conditions: for EC50: CHO cells expressing human TMEM16A (abc), whole-cell automated patch clamp, Hill fit, read-out: TMEM16A QPATCH assay EC50 V3 EC50; for Emax: CHO, read-out: TMEM16A QPATCH assay EC50 V3 Assay Window (% TMEM16A max activation); for Emax / TMEM16A QPATCH assay EC50 V3 Assay Window (% TMEM16A max activation): maximum current at highest dose relative to reference potentiator at maximal concentration (upper limit) and vehicle (lower limit)
# Summary of the method: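 CHO cells with doxycycline-induced (1 μg/mL, 18-24 h) human TMEM16A abc isoform; QPatch whole-cell recording, hold −70 mV, step +70 mV 1500 ms, then −90 to +70 mV ramp. Compounds in 0.3% DMSO; EC50 by Hill fit; % max activation relative to vehicle baseline and reference potentiator maximum.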
Structure (SMILES),EC50,Emax,TMEM16A QPATCH assay EC50 V3 Assay Window (% TMEM16A max activation)
"CCC(CC)NC(=O)c1cnc(-c2cccc(-c3cc(C(=O)N[C@@H](C)C(=O)OC)n[nH]3)c2)o1 [Example 3.42, (S)-Methyl 2-(5-(3-(5-(Pentan-3-Ylcarbamoyl)Oxazol-2-Yl)Phenyl)-1H-Pyrazole-3-Carboxamido)Propanoate]",690 nM,86%,–
"CCOC(=O)[C@@H](NC(=O)c1cnc(-c2cccc(-c3cc(C(=O)NC(C4CC4)C4CC4)[nH]n3)c2)o1)C(C)C [Example 1.12, (S)-Ethyl 2-(2-(3-(5-((Dicyclopropylmethyl)Carbamoyl)-1H-Pyrazol-3-yl)Phenyl)Oxazole-5-Carboxamido)-3-Methylbutanoate]",20 nM,87%,–
"CCC(CC)NC(=O)c1cnc(-c2cccc(-c3cc(C(=O)N[C@@H](C)COC)n[nH]3)c2)o1 [Example 3.11, (S)-2-(3-(3-((1-Methoxypropan-2-Yl)Carbamoyl)-1H-Pyrazol-5-Yl)Phenyl)-N-(Pentan-3-Yl)Oxazole-5-Carboxamide]",590 nM,91%,–
"CCC(CC)NC(=O)c1cnc(-c2cccc(-c3cc(C(=O)NC4CCCC4)n[nH]3)c2)o1 [Example 3.48, 2-(3-(3-(Cyclopentylcarbamoyl)-1 H-Pyrazol-5-Yl)Phenyl)-N-(Pentan-3-yl)Oxazole-5-Carboxamide]",120 nM,74%,–
"CCC(CC)NC(=O)c1cnc(-c2cccc(-c3cc(C(=O)N[C@@H](C)[C@H]4CCCO4)n[nH]3)c2)o1 (single isomer, unassigned) [3.0 (i)]",490 nM,92%,–
"CCC(CC)NC(=O)c1cnc(-c2cccc(-c3cc(C(=O)N[C@@H](C#N)CC)n[nH]3)c2)o1 (single isomer, unassigned) [Example 3.26, (R)-2-(3-(3-((1-Cyanopropyl)Carbamoyl)-1H-Pyrazol-5-Yl)Phenyl)-N-(Pentan-3-Yl)Oxazole-5-Carboxamide or (S)-2-(3-(3-((1-Cyanopropyl)Carbamoyl)-1H-Pyrazol-5-Yl)Phenyl)-N-(Pentan-3-Yl)Oxazole-5-Carboxamide]",240 nM,–,109%
"CCC(CC)NC(=O)c1cnc(-c2cccc(-c3cc(C(=O)NCc4ccc5c(c4)OCO5)n[nH]3)c2)o1 [Example 3.22, 2-(3-(3-((Benzo[d][1,3]Dioxol-5-Ylmethyl)Carbamoyl)-1H-Pyrazol-5-Yl)Phenyl)-N-(Pentan-3-Yl)Oxazole-5-Carboxamide]",140 nM,60%,–
"CCC(CC)NC(=O)c1cnc(-c2cccc(-c3cc(C(=O)NC(C4CC4)C4CCCO4)n[nH]3)c2)o1 (single isomer, unassigned) [Example 3.4 (ii), 2-(3-(3-((Cyclopropyl(Tetrahydrofuran-2-Yl)Methyl)Carbamoyl)-1H-Pyrazol-5-Yl)Phenyl)-N-(Pentan-3-Yl)Oxazole-5-Carboxamide]",260 nM,–,115%
"CCC(CC)NC(=O)c1cnc(-c2cccc(-c3cc(C(=O)NCC4CC4)n[nH]3)c2)o1 [Example 3.32, 2-(3-(3-((Cyclopropylmethyl)Carbamoyl)-1 H-Pyrazol-5-Yl)Phenyl)-N-(Pentan-3-Yl)Oxazole-5-Carboxamide]",110 nM,55%,–
"CCC(CC)NC(=O)c1cnc(-c2cccc(-c3cc(C(=O)NCC4CCCCC4)n[nH]3)c2)o1 [Example 3.18, 2-(3-(3-((Cyclohexylmethyl)Carbamoyl)-1H-Pyrazol-5-Yl)Phenyl)-N-(Pentan-3-Yl)Oxazole-5-Carboxamide]",30 nM,66%,–
"CCC(CC)NC(=O)c1cnc(-c2cccc(-c3cc(C(=O)NC(C4CC4)C4CCCO4)n[nH]3)c2)o1 (single isomer, unassigned) [Example 3.4 (iv), 2-(3-(3-((Cyclopropyl(Tetrahydrofuran-2-Yl)Methyl)Carbamoyl)-1H-Pyrazol-5-Yl)Phenyl)-N-(Pentan-3-Yl)Oxazole-5-Carboxamide]",380 nM,–,73%
"CCC(CC)NC(=O)c1cnc(-c2cccc(-c3cc(C(=O)N4CCCC(C)(C)C4)n[nH]3)c2)o1 [Example 3.15, 2-(3-(3-(3,3-Dimethylpiperidine-1-Carbonyl)-1H-Pyrazol-5-Yl)Phenyl)-N-(Pentan-3-Yl)Oxazole-5-Carboxamide]",200 nM,72%,–

# Continued, values first:
EC50,Emax,TMEM16A QPATCH assay EC50 V3 Assay Window (% TMEM16A max activation),Structure (SMILES)
30 nM,95%,–,"CCOC(=O)[C@@H](NC(=O)c1cc(-c2cccc(-c3ncc(C(=O)NC(CC)CC)o3)c2)[nH]n1)C(C)C [Example 3.52, (S)-Ethyl 3-Methyl-2-(5-(3-(5-(Pentan-3-Ylcarbamoyl)Oxazol-2-Yl)Phenyl)-1 H-Pyrazole-3-Carboxamido)Butanoate]"
110 nM,68%,–,"CCC(CC)NC(=O)c1cnc(-c2cccc(-c3cc(C(=O)N[C@H](C)c4ccccc4)n[nH]3)c2)o1 [Example 3.51, (R)-N-(Pentan-3-Yl)-2-(3-(3-((1-Phenylethyl)Carbamoyl)-1H-Pyrazol-5-Yl)Phenyl)Oxazole-5-Carboxamide]"
30 nM,100%,–,"CCOC(=O)[C@@H](NC(=O)c1cnc(-c2cccc(-c3cc(C(=O)NC(C4CC4)C4CC4)n(CC(C)(C)O)n3)c2)o1)C(C)C [Example 9.6, (S)-Ethyl 2-(2-(3-(5-((Dicyclopropylmethyl)Carbamoyl)-1-(2-Hydroxy-2-Methylpropyl)-1 H-Pyrazol-3-Yl)Phenyl)Oxazole-5-Carboxamido)-3-Methylbutanoate]"
27 nM,81%,–,"CCOC(=O)[C@@H](NC(=O)c1cnc(-c2cccc(-c3cc(C(=O)NC(CC)CC)n(CCO)n3)c2)o1)C(C)C [Example 4.1, (S)-Ethyl 2-(2-(3-(1-(2-Hydroxyethyl)-5-(Pentan-3-Ylcarbamoyl)-1H-Pyrazol-3-Yl)Phenyl)Oxazole-5-Carboxamido)-3-Methylbutanoate]"
20 nM,119%,–,"O=C(NC(C1CC1)C1CC1)c1nnc(-c2cccc(-c3ncc(C(=O)NC(C4CC4)C4CC4)o3)c2)[nH]1 [Example 12.8, N-(Dicyclopropylmethyl)-2-(3-(5-((Dicyclopropylmethyl)Carbamoyl)-4H-1,2,4-Triazol-3-Yl)Phenyl)Oxazole-5-Carboxamide]"
50 nM,131%,–,"CCC(CC)NC(=O)c1cnc(-c2cccc(-c3cc(C(=O)N[C@@H](C)C4CC4)n(C)n3)c2)o1 [Example 6.2, (S)-2-(3-(5-((1-Cyclopropylethyl)Carbamoyl)-1-Methyl-1H-Pyrazol-3-Yl)Phenyl)-N-(Pentan-3-Yl)Oxazole-5-Carboxamide]"
180 nM,88%,–,"CCC(CC)NC(=O)c1cnc(-c2cccc(-c3cc(C(=O)N[C@@H](C)C4CC4)n(CCO)n3)c2)o1 [Example 9.8, (S)-2-(3-(5-((1-cyclopropylethyl)carbamoyl)-1-(2-hydroxyethyl)-1 H-pyrazol-3-yl)phenyl)-N-(pentan-3-yl)oxazole-5-carboxamide]"
440 nM,83%,–,"CCC(CC)NC(=O)c1cnc(-c2cccc(-c3nnc(C(=O)NC(CC)CC)n3CCOC)c2)o1 [Example 15.5, 2-(3-(4-(2-Methoxyethyl)-5-(Pentan-3-Ylcarbamoyl)-4H-1,2,4-Triazol-3-Yl)Phenyl)-N-(Pentan-3-Yl)Oxazole-5-Carboxamide]"
420 nM,161%,–,"CCC(CC)NC(=O)c1cnc(-c2cccc(-c3nc(C(=O)NC(CC)CC)n(CCN4CCCCC4)n3)c2)o1 [Example 15.0, N-(Pentan-3-Yl)-2-(3-(5-(Pentan-3-Ylcarbamoyl)-1-(2-(Piperidin-1-Yl)Ethyl)-1H-1,2,4-Triazol-3-Yl)Phenyl)Oxazole-5-Carboxamide]"
240 nM,155%,–,"CCC(CC)NC(=O)c1cnc(-c2cccc(-c3nc(C(=O)NC(CC)CC)n(CCOC)n3)c2)o1 [Example 15.1, 2-(3-(1-(2-Methoxyethyl)-5-(Pentan-3-Ylcarbamoyl)-1H-1,2,4-Triazol-3-Yl)Phenyl)-N-(Pentan-3-Yl)Oxazole-5-Carboxamide]"
